Measurements taken from patent US20210161855A1, “5-LIPOXYGENASE ANTAGONISTS” (INSTITUTO DE MEDICINA MOLECULAR JOÃO LOBO ANTUNES, priority 2017, published 2021).
≈ marks a conversion by molar mass, not a printed value. Like-named read-outs stand apart in the source and are kept apart here.

What was measured:
5-LO = target: T1, 5-LO (Homo sapiens, UniProt P09917); assay: Cell-free activity assay of human recombinant 5-LO; type: biochemical; parameters: made in house; host or cells: E. coli (BL21), plasmid pT3-5-LO
T1 sequence (P09917 1-674): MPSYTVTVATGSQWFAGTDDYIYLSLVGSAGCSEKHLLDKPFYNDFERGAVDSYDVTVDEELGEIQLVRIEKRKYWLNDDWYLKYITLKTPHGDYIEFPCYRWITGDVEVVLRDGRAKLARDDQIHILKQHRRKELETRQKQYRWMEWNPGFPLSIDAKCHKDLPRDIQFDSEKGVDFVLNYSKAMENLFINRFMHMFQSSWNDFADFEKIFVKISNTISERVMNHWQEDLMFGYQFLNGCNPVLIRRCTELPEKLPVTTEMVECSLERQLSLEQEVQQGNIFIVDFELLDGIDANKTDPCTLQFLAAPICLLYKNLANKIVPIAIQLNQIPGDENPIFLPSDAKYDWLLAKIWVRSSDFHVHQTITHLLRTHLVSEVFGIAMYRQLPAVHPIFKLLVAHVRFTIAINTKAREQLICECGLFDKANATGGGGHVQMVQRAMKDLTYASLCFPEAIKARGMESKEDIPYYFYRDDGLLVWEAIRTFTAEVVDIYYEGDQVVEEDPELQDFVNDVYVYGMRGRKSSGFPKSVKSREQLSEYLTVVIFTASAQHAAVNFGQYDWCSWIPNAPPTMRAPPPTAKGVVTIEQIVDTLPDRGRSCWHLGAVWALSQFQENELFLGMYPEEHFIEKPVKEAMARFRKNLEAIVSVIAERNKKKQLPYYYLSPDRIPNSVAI
Method: E. coli(BL21) was transformed with pT3-5-LO plasmid, and recombinant 5-LO protein was expressed at 30° C. as described.^34 Cells were lysed in 50 mM triethanolamine/HCl pH 8.0, 5 mM EDTA, 1 mM phenylmethanesulphonyl fluoride, soybean trypsin inhibitor (60 μg/mL), and lysozyme (1 mg/mL), homogenized by sonication (3×15 s), and centrifuged at 40,000×g for 20 min at 4° C. The 40,000×g supernatant (S40) was applied to an ATP-agarose column to partially purify 5-LO as described.^70 Aliquots of semi-purified 5-LO (0.5 μg) were diluted with 1 mL ice-cold PBS containing 1 mM EDTA. Samples were pre-incubated with the test compound or vehicle (0.1% DMSO) with or without Triton X-100 and/or 1 mM DTT, as indicated. After 10 min at 4° C., samples were pre-warmed for 30 s at 37° C., and 2 mM CaCl2 plus the indicated concentrations of arachidonic acid (AA) were added to start the formation of 5-LO products. After 10 min, the reaction was stopped by addition of one volume of ice-cold methanol, and the formed 5-LO products were analyzed by RP-HPLC as described.^71 5-LO products include the all-trans isomers of LTB4 (tr-LTB4 isomers) as well as 5(S)-hydroperoxy-6-trans-8,11,14-cis-eicosatetraenoic acid (5-HPETE) and its corresponding alcohol 5(S)-hydroxy-6-trans-8,11,14-cis-eicosatetraenoic acid (5-HETE). For phosphatidylcholine competition assays (3 or 30 μg/ml PC) samples were pre-incubated on ice with β-lapachone with or without 1 mM DDT or vehicle (0.1% DMSO) for 10 minutes. After addition of 2 mM CaCl2) and 20 μM AA the incubation was continued for 10 minutes at 37° C. and after that stopped with methanol.
Data are expressed as mean±S.E.M. IC50 values were calculated from averaged measurements at 6 different concentrations of the compound by nonlinear regression using GraphPad Prism software (San Diego, Calif.) one site binding competition. Statistical evaluation of the data was performed by one-way ANOVA followed by a Tukey-Kramer post-hoc test for multiple comparisons respectively. A p value<0.05 (*) was considered significant.

[1] = system: Staphylococcus aureus ATCC 25923; assay: MIC/MBC assay, S. aureus; type: cell-based
Method: Escherichia coli K12 and Staphylococcus aureus ATCC 25923 were grown overnight at 37° C. and re-inoculated in 24-well plates containing 2.5 mL of Luria Bertani medium (LB) to give an optical density of ˜0.01 at 600 nm. Stock solutions of β-lapachone, and lapachol were prepared in DMSO (1% final concentration) and added to the cell suspensions to obtain final concentrations between 5-210 μM. Wells containing a growth control (cell suspensions with 1% DMSO) and a sterile media control were also prepared. The plates were incubated for 18 h at 37° C. and 90 r.p.m. The concentration of compound in the first well in the series that presented no sign of visible growth was reported as the MIC. The OD600 of the cultures was also measured. All the MIC wells were serially diluted in phosphate buffer saline (PBS) and plated onto LB agar plates.

HL-60 = conditions: cited from earlier work

Structure (SMILES): CC1(C)CCC2=C(O1)c1ccccc1C(=O)C2=O [Compound 1, 3,4-dihydro-2,2-dimethyl-2H-naphtho[1,2-b]pyran-5,6-dione]
- IC50 (5-LO; 3 μg/mL phosphatidylcholine, n=3, read-out: IC50 (3 μg/mL, PC), competition assay with phosphatidylcholine): 100 nM
- IC50 (5-LO; 30 μg/mL phosphatidylcholine, n=3, read-out: IC50 (30 μg/mL, PC), competition assay with phosphatidylcholine): 1000 nM
- IC50 (5-LO; 1 mM DTT, 0.01% Triton X100, n=3, read-out: IC50 (with Triton X100), inhibition of 5-LO): 90 nM
- IC50 (5-LO; 1 mM DTT, no Triton X100, n=3, read-out: IC50 (without Triton X100), inhibition of 5-LO): 120 nM
- IC50 (5-LO; 1 mM dithiothreitol (DTT), n=3, read-out: IC50 (with DTT), inhibition of 5-LO in a cell-free assay): 240 nM
- IC50 (5-LO; absence of DTT, n=3, read-out: IC50 (without DTT), inhibition of 5-LO in a cell-free assay): > 30000 nM
- Effect of arachidonic acid concentration on potency (5-LO; arachidonic acid 2.5-40 μM): only to minor alterations of the potency
- 5-LO modulation in absence of dithiothreitol (5-LO; cell-free, no DTT, up to 30 μM): negligible 5-LO modulation
- 5-LO activity after wash-out (5-LO; wash-out of compound): could be reinstated upon wash-out
- MIC ([1]; ATCC25923, 18 h, read-out: Minimum inhibitory concentration): 60 µM (≈ 14.5 µg/mL)
- MBC ([1]; ATCC25923, read-out: Minimum bactericidal concentration): > 200 µM
- pGI50 z-score (HL-60; NCI-60, z-transformed pGI50): 2.38
- GI50 (HL-60; NCI-60): 62.4 nM
